In ChEMBL document CHEMBL1157642, “2-Amino-5-benzoyl-4-phenylthiazoles: Development of potent and selective adenosine A1 receptor antagonists” (Bioorg Med Chem, 2010):
Residue numbers refer to the chain shown, from its start.

What was measured:
Adenosine receptor A2a [1] = molecular target: T1, Adenosine receptor A2a (Rattus norvegicus, UniProt P30543)
Description: Binding affinity to rat adenosine A2A receptor

Adenosine receptor A1 [2] = molecular target: T2, Adenosine receptor A1 (Mus musculus, UniProt Q60612); test: Binding affinity to mouse adenosine A1 receptor
T2 sequence (Q60612 whole entry): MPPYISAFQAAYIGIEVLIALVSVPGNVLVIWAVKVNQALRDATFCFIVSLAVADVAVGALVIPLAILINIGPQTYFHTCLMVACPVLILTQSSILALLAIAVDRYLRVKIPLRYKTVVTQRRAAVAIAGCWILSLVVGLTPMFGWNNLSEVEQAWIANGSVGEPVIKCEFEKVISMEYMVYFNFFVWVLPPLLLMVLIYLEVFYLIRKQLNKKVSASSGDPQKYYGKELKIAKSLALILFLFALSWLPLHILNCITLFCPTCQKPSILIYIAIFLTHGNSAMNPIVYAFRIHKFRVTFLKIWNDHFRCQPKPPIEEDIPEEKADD

Adenosine receptor A1 [3] = molecular target: T3, Adenosine receptor A1 (Cavia porcellus, UniProt P47745); test: Binding affinity to guinea pig adenosine A1 receptor
T3 sequence (P47745 whole entry): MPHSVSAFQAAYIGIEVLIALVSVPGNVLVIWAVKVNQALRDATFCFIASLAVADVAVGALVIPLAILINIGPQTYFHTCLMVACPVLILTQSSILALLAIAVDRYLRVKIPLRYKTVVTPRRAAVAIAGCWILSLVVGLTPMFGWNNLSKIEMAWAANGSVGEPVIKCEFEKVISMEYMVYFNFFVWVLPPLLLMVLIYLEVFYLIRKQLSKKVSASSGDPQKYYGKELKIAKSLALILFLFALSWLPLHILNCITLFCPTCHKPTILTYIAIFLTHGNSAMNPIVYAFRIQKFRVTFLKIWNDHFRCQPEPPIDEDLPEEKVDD

Adenosine receptor A1 [4] = molecular target: T4, Adenosine receptor A1 (Homo sapiens, UniProt P30542); test: Binding affinity to human adenosine A1 receptor
T4 sequence (P30542 whole entry): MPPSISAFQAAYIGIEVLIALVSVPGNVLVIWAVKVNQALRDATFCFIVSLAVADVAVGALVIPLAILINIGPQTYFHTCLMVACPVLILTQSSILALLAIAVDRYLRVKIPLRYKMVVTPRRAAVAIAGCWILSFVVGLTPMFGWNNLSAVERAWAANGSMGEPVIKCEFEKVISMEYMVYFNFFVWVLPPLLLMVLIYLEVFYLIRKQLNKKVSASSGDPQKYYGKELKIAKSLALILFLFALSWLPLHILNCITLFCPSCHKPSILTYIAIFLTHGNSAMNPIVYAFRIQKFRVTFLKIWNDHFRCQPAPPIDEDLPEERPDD

Adenosine receptor A2a [5] = molecular target: T5, Adenosine receptor A2a (Homo sapiens, UniProt P29274)
T5 sequence (P29274 whole entry): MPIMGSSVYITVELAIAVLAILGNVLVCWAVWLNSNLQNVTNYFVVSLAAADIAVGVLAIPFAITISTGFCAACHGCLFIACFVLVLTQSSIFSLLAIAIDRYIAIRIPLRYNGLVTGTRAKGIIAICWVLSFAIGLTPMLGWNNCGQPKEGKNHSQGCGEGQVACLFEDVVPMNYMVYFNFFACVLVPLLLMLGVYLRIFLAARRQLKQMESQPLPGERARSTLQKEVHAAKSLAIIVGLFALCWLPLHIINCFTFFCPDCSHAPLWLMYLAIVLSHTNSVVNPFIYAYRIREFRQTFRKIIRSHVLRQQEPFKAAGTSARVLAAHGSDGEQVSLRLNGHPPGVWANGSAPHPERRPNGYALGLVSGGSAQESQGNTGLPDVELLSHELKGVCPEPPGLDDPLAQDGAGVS
Description: Binding affinity to human adenosine A2A receptor

[6] = molecular target: T6, Adenosine receptor A2b (Homo sapiens) (UniProt P29275); test: Antagonist activity at human adenosine A2B receptor; assay type: functional
T6 sequence (whole entry): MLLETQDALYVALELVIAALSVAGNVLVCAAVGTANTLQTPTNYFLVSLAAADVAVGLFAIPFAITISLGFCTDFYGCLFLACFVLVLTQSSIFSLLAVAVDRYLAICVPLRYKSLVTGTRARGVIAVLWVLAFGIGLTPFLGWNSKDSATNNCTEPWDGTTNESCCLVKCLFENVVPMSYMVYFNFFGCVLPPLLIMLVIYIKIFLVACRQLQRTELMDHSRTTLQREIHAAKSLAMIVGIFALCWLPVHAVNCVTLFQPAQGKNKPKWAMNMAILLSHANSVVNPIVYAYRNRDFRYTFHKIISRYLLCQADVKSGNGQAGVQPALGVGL

Adenosine receptor A3 [7] = molecular target: T7, Adenosine receptor A3 (Ovis aries, UniProt P35342); test: Binding affinity to sheep adenosine A3 receptor
T7 sequence (P35342 whole entry): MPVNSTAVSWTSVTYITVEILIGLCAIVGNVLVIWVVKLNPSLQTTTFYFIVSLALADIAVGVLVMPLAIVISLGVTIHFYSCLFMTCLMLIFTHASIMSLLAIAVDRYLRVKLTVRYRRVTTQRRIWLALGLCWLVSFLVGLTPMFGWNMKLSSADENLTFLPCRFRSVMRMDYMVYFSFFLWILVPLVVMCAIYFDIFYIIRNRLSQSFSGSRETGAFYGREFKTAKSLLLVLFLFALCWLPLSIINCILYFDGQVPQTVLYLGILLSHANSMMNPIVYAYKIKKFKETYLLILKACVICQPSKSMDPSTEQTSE

Adenosine receptor A2a [8] = molecular target: Adenosine receptor A2a (Cavia porcellus, UniProt P46616); test: Binding affinity to guinea pig adenosine A2A receptor
Sequence of Adenosine receptor A2a (Cavia porcellus, UniProt P46616) (P46616 whole entry): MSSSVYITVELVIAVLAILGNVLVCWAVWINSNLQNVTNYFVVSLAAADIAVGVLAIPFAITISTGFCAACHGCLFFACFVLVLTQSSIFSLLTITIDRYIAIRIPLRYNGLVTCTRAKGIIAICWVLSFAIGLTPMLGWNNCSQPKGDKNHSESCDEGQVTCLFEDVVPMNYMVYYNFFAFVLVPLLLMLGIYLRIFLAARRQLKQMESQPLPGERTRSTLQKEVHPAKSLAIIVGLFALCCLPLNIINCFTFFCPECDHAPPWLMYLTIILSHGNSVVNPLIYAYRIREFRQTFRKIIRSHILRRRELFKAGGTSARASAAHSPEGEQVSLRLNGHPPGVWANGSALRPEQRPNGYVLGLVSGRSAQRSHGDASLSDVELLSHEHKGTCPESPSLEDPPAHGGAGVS

Adenosine receptor A3 [9] = molecular target: T8, Adenosine receptor A3 (Rattus norvegicus, UniProt P28647)
T8 sequence (P28647 whole entry): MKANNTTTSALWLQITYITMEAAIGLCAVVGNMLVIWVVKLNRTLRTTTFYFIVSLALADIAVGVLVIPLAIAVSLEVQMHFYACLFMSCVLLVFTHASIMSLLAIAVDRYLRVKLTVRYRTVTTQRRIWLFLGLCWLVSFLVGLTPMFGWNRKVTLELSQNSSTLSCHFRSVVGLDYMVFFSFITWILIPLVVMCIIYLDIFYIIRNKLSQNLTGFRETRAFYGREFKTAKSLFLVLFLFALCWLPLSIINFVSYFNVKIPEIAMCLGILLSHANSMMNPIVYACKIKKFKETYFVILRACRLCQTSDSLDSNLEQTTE
Description: Binding affinity to rat adenosine A3 receptor

[10] = molecular target: T9, Adenosine receptor A3 (Homo sapiens) (UniProt P0DMS8); test: Displacement of [3H]PSB-11 from human adenosine A3 receptor expressed in CHO cells at 1 uM; assay type: cell-based
T9 sequence (whole entry): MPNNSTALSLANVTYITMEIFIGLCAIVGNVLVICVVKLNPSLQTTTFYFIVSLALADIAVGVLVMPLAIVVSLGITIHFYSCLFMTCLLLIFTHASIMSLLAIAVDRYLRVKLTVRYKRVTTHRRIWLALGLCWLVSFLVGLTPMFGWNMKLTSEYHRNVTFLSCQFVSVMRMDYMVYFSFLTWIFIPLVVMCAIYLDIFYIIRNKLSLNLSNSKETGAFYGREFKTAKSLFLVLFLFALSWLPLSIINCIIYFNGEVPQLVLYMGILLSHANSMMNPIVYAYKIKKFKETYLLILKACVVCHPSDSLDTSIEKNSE

[11] = molecular target: Adenosine receptor A2a (Rattus norvegicus) (UniProt P30543); test: Displacement of [3H]MSX2 from adenosine A2A receptor in rat brain striatum membrane at 1 uM; assay type: cell membranes
Sequence of Adenosine receptor A2a (Rattus norvegicus) (P30543 whole entry): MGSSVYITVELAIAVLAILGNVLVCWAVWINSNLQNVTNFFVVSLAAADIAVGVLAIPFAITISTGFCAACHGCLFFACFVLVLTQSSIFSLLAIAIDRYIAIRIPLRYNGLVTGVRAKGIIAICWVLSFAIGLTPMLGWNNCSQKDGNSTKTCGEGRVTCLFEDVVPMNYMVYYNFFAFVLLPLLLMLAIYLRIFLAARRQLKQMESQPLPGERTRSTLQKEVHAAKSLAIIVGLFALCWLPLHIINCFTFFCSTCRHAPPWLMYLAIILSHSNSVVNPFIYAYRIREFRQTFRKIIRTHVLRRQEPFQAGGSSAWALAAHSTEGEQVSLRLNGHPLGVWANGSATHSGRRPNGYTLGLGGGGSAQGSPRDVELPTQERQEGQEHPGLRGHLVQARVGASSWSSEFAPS

Adenosine receptor A2b = molecular target: T10, Adenosine receptor A2b (Homo sapiens, UniProt P29275); test: Displacement of [3H]PSB-603 from human adenosine A2B receptor expressed in CHO cells; assay type: cell-based
T10 sequence (P29275 whole entry): T6 sequence (whole entry)

[12] = molecular target: T11, Adenosine receptor A1 (Rattus norvegicus) (UniProt P25099); test: Displacement of [3H]CCPA from adenosine A1 receptor in rat brain cortex membrane at 1 uM; assay type: cell membranes
T11 sequence (whole entry): T2 sequence (Q60612 whole entry) with E151V, A155D, I157R, E316D, I319L, D325E

[13] = molecular target: T6, Adenosine receptor A2b (Homo sapiens); test: Displacement of [3H]PSB-603 from human adenosine A2B receptor expressed in CHO cells at 1 uM; assay type: cell-based
Adenosine receptor A1 [14] = molecular target: T12, Adenosine receptor A1 (Rattus norvegicus, UniProt P25099)
T12 sequence (P25099 whole entry): T2 sequence (Q60612 whole entry) with E151V, A155D, I157R, E316D, I319L, D325E

Adenosine receptor A2a [15] = molecular target: T1, Adenosine receptor A2a; remark: listed apart in the source
Adenosine receptor A3 [16] = molecular target: T13, Adenosine receptor A3 (Homo sapiens, UniProt P0DMS8); test: biochemical
T13 sequence (P0DMS8 whole entry): T9 sequence (whole entry)

Adenosine receptor A1 [17] = molecular target: T12, Adenosine receptor A1; test: Binding affinity to rat adenosine A1 receptor
Adenosine receptor A3 [18] = molecular target: T13, Adenosine receptor A3; test: Binding affinity to human adenosine A3 receptor
Adenosine receptor A1 [19] = molecular target: T12, Adenosine receptor A1; test: Displacement of [3H]DPCPX from adenosine A1 receptor in rat brain cortical membrane in presence of 100 uM GTP; assay type: cell membranes
Adenosine receptor A1 [20] = molecular target: T4, Adenosine receptor A1; test: Displacement of [3H]CCPA from human adenosine A1 receptor expressed in CHO cells; assay type: cell-based
Adenosine receptor A1 [21] = molecular target: T12, Adenosine receptor A1; test: Displacement of [3H]DPCPX from adenosine A1 receptor in rat brain cortical membrane in absence of 100 uM GTP; assay type: cell membranes
Adenosine receptor A2a [22] = molecular target: T5, Adenosine receptor A2a; test: Displacement of [3H]MSX2 from human adenosine A2A receptor expressed in CHO cells; assay type: cell-based
[23] = molecular target: T11, Adenosine receptor A1 (Rattus norvegicus); test: Potency shift, ratio of IC50 for rat brain cortical membrane adenosine A1 receptor in presence of 100 uM GTP to C50 for rat brain cortical membrane adenosine A1 receptor in absence of 100 uM GTP

T1 sequence (P30543 whole entry): as above

Compound: O=C(O)CCCn1nc(-c2c(-c3ccccc3)nn3ccccc23)ccc1=O
- Ki (Adenosine receptor A2a [1]): 1200 nM
- Ki (Adenosine receptor A1 [2]): 10.2 nM
- Ki (Adenosine receptor A1 [3]): 10 nM
- Ki (Adenosine receptor A1 [4]): 12 nM

Compound: COc1cc(-c2nc(NC(C)=O)sc2-c2ccncc2)cc(OC)c1OC
- Ki (Adenosine receptor A2a [5]): > 10000 nM
- Ki (Adenosine receptor A1 [4]): > 10000 nM
- Kb [6]: 3200 nM

Compound: Cn1cnc2c(N[C@H]3C[C@H]4CC[C@@H]3C4)ncnc21
- Ki (Adenosine receptor A3 [7]): 41.4 nM
- Ki (Adenosine receptor A1 [3]): 375 nM
- Ki (Adenosine receptor A2a [8]): 3750 nM

Compound: Cn1c(=O)c2[nH]cnc2n(C)c1=O [THEOPHYLLINE]
- Ki (Adenosine receptor A3 [9]): 85000 nM

Compound: CS(=O)(=O)c1ccc(C(=O)c2sc(NC(=O)c3ccccc3)nc2-c2ccccc2)cc1
- inhibition [10]: < 30%
- inhibition [11]: < 30%
- Ki (Adenosine receptor A2b): > 1000 nM
- inhibition [12]: < 30%
- inhibition [13]: < 30%
- Ki (Adenosine receptor A1 [14]): > 1000 nM
- Ki (Adenosine receptor A2a [15]): > 1000 nM
- Ki (Adenosine receptor A3 [16]): > 1000 nM

Compound: O=C(/C=C/c1c(-c2ccccc2)nn2ccccc12)N1CCCC[C@@H]1CCO [FK453]
- Ki (Adenosine receptor A1 [2]): 0.55 nM
- IC50 (Adenosine receptor A1 [3]): 0.56 nM
- IC50 (Adenosine receptor A2a [8]): 1180 nM

Compound: CCCn1c(=O)c2[nH]c(C34CCC(CCC(=O)O)(CC3)CC4)nc2n(CCC)c1=O [TONAPOFYLLINE]
- Ki (Adenosine receptor A2a [1]): 2440 nM
- Ki (Adenosine receptor A1 [17]): 1.3 nM
- Ki (Adenosine receptor A3 [18]): 10000 nM

Compound: OC1CCC(Nc2nc(-c3ccccc3)nc3[nH]ccc23)CC1 (configuration not stated) [DERENOFYLLINE]
- Ki (Adenosine receptor A2a [1]): 501 nM
- Ki (Adenosine receptor A1 [4]): 1 nM
- Ki (Adenosine receptor A1 [17]): 2.51 nM
- Ki (Adenosine receptor A3 [18]): 200 nM

Compound: Cc1ccc(C(=O)c2sc(NC(=O)c3ccccc3)nc2-c2ccccc2)cc1
- IC50 (Adenosine receptor A1 [19]): 22.3 nM
- Ki (Adenosine receptor A1 [20]): 57.4 nM
- inhibition [11]: < 30%
- Ki (Adenosine receptor A2b): > 1000 nM
- inhibition [13]: < 30%
- IC50 (Adenosine receptor A1 [21]): 22.1 nM
- Ki (Adenosine receptor A1 [14]): 4.83 nM
- Ki (Adenosine receptor A2a [22]): 6250 nM
- Ki (Adenosine receptor A2a [15]): > 1000 nM
- Ki (Adenosine receptor A3 [16]): 2160 nM
- Ratio IC50 [23]: 0.99

Compound: O=C(Nc1nc(-c2ccccc2)c(C(=O)c2ccccc2)s1)c1ccco1
- IC50 (Adenosine receptor A1 [19]): 28.8 nM
- Ki (Adenosine receptor A1 [20]): 54.3 nM
- Ki (Adenosine receptor A2b): > 1000 nM
- inhibition [13]: < 30%
- IC50 (Adenosine receptor A1 [21]): 25.4 nM
- Ki (Adenosine receptor A1 [14]): 5.77 nM
- Ki (Adenosine receptor A2a [22]): 348 nM
- Ki (Adenosine receptor A2a [15]): 662 nM
- Ki (Adenosine receptor A3 [16]): 208 nM
- Ratio IC50 [23]: 1.2

Compound: Cc1ccc(C(=O)Nc2nc(-c3ccccc3)c(C(=O)c3ccccc3)s2)cc1
- inhibition [10]: < 30%
- inhibition [11]: < 30%
- Ki (Adenosine receptor A2b): > 1000 nM
- inhibition [12]: < 30%
- inhibition [13]: 40%
- Ki (Adenosine receptor A1 [14]): > 1000 nM
- Ki (Adenosine receptor A2a [15]): > 1000 nM
- Ki (Adenosine receptor A3 [16]): > 1000 nM

Compound: CCCn1c(=O)c2[nH]c(C34CC5CC(CC3C5)C4)nc2n(CCC)c1=O [ROLOFYLLINE]
- Ki (Adenosine receptor A2a [1]): 170 nM
- Ki (Adenosine receptor A2a [8]): 230 nM

Compound: O=C(c1ccccc1)c1sc(NCCc2cccs2)nc1-c1ccco1
- Ki (Adenosine receptor A1 [4]): > 6700 nM

Compound: Cc1ccc(C(=O)Nc2nc(-c3ccccc3)c(C(=O)c3ccc(Cl)cc3)s2)cc1
- inhibition [10]: < 30%
- inhibition [11]: < 30%
- Ki (Adenosine receptor A2b): > 1000 nM
- inhibition [12]: < 30%
- inhibition [13]: < 30%
- Ki (Adenosine receptor A1 [14]): > 1000 nM
- Ki (Adenosine receptor A2a [15]): > 1000 nM
- Ki (Adenosine receptor A3 [16]): > 1000 nM

Compound: CS(=O)(=O)c1ccc(C(=O)c2sc(Nc3ccccc3)nc2-c2ccccc2)cc1
- inhibition [10]: < 30%
- inhibition [11]: < 30%
- Ki (Adenosine receptor A2b): > 1000 nM
- inhibition [12]: < 30%
- inhibition [13]: < 30%
- Ki (Adenosine receptor A1 [14]): > 1000 nM
- Ki (Adenosine receptor A2a [15]): > 1000 nM
- Ki (Adenosine receptor A3 [16]): > 1000 nM
